We go through 1 compound from US20160184459A1, “CANCER CELL SPECIFIC IMAGING PROBES AND METHODS OF USE” (THE RESEARCH FOUNDATION FOR THE STATE UNIVERSITY OF NEW YORK, priority 2013, published 2016).

One assay concerns RPMI8226 cells. Kind of assay: Live single cell detection by FACS, cell surface Puro. As to conditions: 20 μg/ml, 16 hr, anti-puro antibody (12D10) Alexa 647, FACS. Type of assay: cell-based. On the procedure:
Cell surface detection of Puro by anti-puro antibody (12D10) conjugated to Alexa 647 (EMD Millipore). RPMI8226 cells were treated with Puro (0.25 μg/ml) or Boc-KAc-Puro (20 μg/ml) for 16 hr then harvested by centrifugation followed by two times wash using cold washing solution (0.1% BSA in PBS). Cells were resuspended in the same solution and incubated 30 min on ice with Alexa 647 conjugated mouse IgG2a anti-puromycin antibody (12D10). Cells were washed twice with the solution followed by FACS analysis (BD FACSCalibur). The specificity of the antibody was confirmed by using isotype control antibody (mouse IgG2a conjugated with Alexa 647).
For orientation: A flow cytometer gives signals particle by particle.

The subject of assay [1] is prostate cancer cells (PC-3, DU-145 and LNCaP). The assay is described as follows: Cell viability assay, prostate cancer cells. It is filed as cell-based. As to conditions: dose-response, MTS. On the procedure: FIG. 19. Selective cytotoxicity by BKAc-Puro on prostate cancer cells. Prostate cancer (PC-3, DU-145, and LNCaP), colon cancer (HCT116 as a positive control sensitive to the drug), and normal colon (CCD841-CoN as a negative control) cells were grown and analyzed as in FIG. 13. BKAc-Puro can effectively cause cell death on prostate cancer cells.
(§1) Cell number was determined by cell counting using improved Neubauer hemacytometer. Cell viability was calculated as the number of viable cells divided by the total number of cells using Trypan Blue Stain (Invitrogen) to distinguish non-viable cells. Data were obtained from duplicated samples with quadruplicate measurements. MTS based cell viability assay was performed using CellTiter 96 Aqueous Cell Proliferation Assay (Promega) according to the manufacturer's instruction. […] After additional 2-3 h incubation, the absorbance of the formazan at 490 nm was measured by the microplate reader. […] Determination of non-viable cells using PI staining was performed by adding 1 μg/ml of PI solution (Sigma) to the cell culture, prior to the examination under fluorescence microscopy (Axiovert 3, Carl Zeiss) through a×32 objective equipped with a digital imaging processor (Infinity 3, Lumenera).

Assay [2] deals with non-malignant Caco-2 cells. Kind of assay: Cell counting, Caco-2. It is filed as cell-based, human. As to conditions: 54 μM, 5 d. On the procedure:
(§2) FIG. 9. The colon cancer cell lines were grown for 5 d either with vehicle control DMSO (gray symbols) or 54 μM BKAc-Puro (red and blue symbols), and cell number was determined at the indicated time points.
as §1, with “instruction. Either 1 μl of DMSO alone or variable concentrations of BKAc-Puro or Puro in DMSO were added to the cell lines seeded at 5×10^4 cells per well in 96-well tissue culture plates in 100 μl of the growth medium, followed by 3-5 d incubation at 37° C. with 5% CO2 atmosphere.” for “instruction.”

Assay [3] deals with malignant cell lines with high HDAC and CTSL activity (COGA-10, HCA-7, HT29, HCT116). Kind of assay: MTS cell viability assay, malignant colon cancer cell lines. It is filed as cell-based. As to conditions: Homo sapiens, 120 h, 5 d, read-out: IC50, inhibition of cell viability. On the procedure:
FIG. 13. Inhibition of cell viability by BKAc-Puro is presented in dose-response curve format for the same cell lines as in FIG. 8. The cell lines were treated with DMSO or the indicated doses of agent (4.22, 8.44, 16.9, 33.8, 67.5, or 135 μM) for 5 d followed by MTS assay. Data represent mean values of triplicate measurements±s.d. (n=3). IC50 values were fit by logistic regression.
as §1
In general terms: Formazan colour is commonly taken as a measure of viable cells.

Assay [4] deals with Puro-incorporated proteins in HCT116, HT29, CCD841-CoN and Caco-2 cells. Kind of assay: Immunoblotting of Puro-incorporated proteins in cell lysates. It is filed as cell-based, human. The conditions noted are these: 16.9 μM, 20 h. On the procedure: FIG. 27. Levels of Puro-incorporated proteins in the cells were monitored by immunoblotting. Indicated cell lines were treated either with vehicle control DMSO or Boc-KAc-Puro (16.9 μM) in the presence or absence of TSA (0.5 μM) for 20 h, followed by preparation of cell lysates. The lower panel (anti-α-Tubulin) serves as a loading control.
FIG. 28. Levels of Puro-incorporated proteins in the cells were monitored by immunoblotting. Indicated cell lines were treated either with vehicle control DMSO or Puro (2.1 μM) in the presence or absence of TSA (0.5 μM) for 16 h, followed by preparation of cell lysates. […] The lower panel (anti-α-Tubulin) serves as a loading control.
Cultured cells or tissue samples were sonicated in RIPA lysis buffer (1% NP-40, 0.1% SDS, 50 mM Tris-HCl pH 7.4, 150 mM NaCl, 0.5% sodium deoxycholate, 1 mM EDTA) supplemented with PMSF and protease inhibitor cocktail (Roche) on ice followed by clarification. Protein lysates were separated on sodium dodecyl sulfate-polyacrylamide gels and transferred onto nitrocellulose membranes (Whatman). The primary antibodies used were anti-puromycin (3RH11, KeraFAST) and anti-α-tubulin (Sigma-Aldrich). Proteins of interest were detected with anti-mouse secondary antibody by chemiluminescence (ECL Kit, GE Healthcare Life Sciences).
On the technique in general: Immunoblotting shows a protein as a band on a membrane.

The subject of assay [5] is malignant colon cancer cells with high HDAC and CTSL activity. Kind of assay: Cell counting, trypan blue exclusion and PI staining, malignant colon cancer cell lines. Type of assay: cell-based, human. The conditions noted are these: 54 μM. On the procedure:
as §2
FIG. 10. The cell lines were grown as in FIG. 8, cell viability was determined by trypan blue at the indicated time points, and is presented as the percentage of live cells treated with vehicle control (gray symbols) or BKAc-Puro (red and blue symbols).
FIG. 11. The cell lines were grown as in FIG. 8, and dead cells were determined after 80 h by PI signal under fluorescent microscope. BF, bright field. PI, fluorescent PI channel.
as §1, with “measurements.” for “measurements. MTS based cell viability assay was performed using CellTiter 96 Aqueous Cell Proliferation Assay (Promega) according to the manufacturer's instruction.”

Turning to `COc1ccc(CC(NC(=O)C(CCCCNC(C)=O)NC(=O)OC(C)(C)C)C(=O)NC2C(O)[C@H](n3cnc4c(N(C)C)ncnc43)O[C@@H]2CO)cc1` (stereo partly drawn) [BKAc-Puro, N-[3′-(α-Amino-p-methoxyhydrocinnamamido)-3′-deoxy-N,N-dimethyldenosinyl)-N-α-(t-butoxycarbonyl]-N-ε-acetyl-L-lysineamide], the “Puro presentation on cell surface proteins” value with RPMI8226 cells is recorded as “confirmed”. In assay [1], the Cell death entry was “effectively caused cell death”. The “Cell proliferation (cell number)” value is recorded as “allowed them to proliferate to confluency” in assay [2] and “impaired the proliferation” in assay [5] (5 d). The IC50 – broadly, the concentration at which inhibition is half-maximal – in assay [3] is approximately 10 µM. Also, the “Intensity of Puro incorporation, malignant versus normal and non-malignant cells” value in assay [4] is reported as “substantially greater in malignant cancer cells”. Also, in assay [4] (TSA 0.5 μM), the “Intensity of Puro incorporation in the presence of TSA” value was “compromised intensity”. In assay [5], the “Cell death (trypan blue exclusion, morphology, PI staining)” value is “massive cell death”.
